Key:
[1] = target: T1, TORC1 (Tor1 kinase subunit) (Saccharomyces cerevisiae, UniProt P35169); test: in vitro radioactive [γ-32P]-ATP kinase assay with purified TORC1, Lst4 loop substrate; enzyme kinetics; format: biochemical
T1 construct: TORC1 complex purified from yeast via Tco89-TEV-TAP (quantified with respect to the Tor1 subunit); with Kog1, Lst8, Tco89 (TORC1 subunits)

[2] = system: Nc1ncnc2c1ncn2[C@@H]1O[C@H](COP(=O)(O)OP(=O)(O)OP(=O)(O)O)[C@@H](O)[C@H]1O; test: purified protein; conditions: Mg2+

T1 sequence (P35169 whole entry): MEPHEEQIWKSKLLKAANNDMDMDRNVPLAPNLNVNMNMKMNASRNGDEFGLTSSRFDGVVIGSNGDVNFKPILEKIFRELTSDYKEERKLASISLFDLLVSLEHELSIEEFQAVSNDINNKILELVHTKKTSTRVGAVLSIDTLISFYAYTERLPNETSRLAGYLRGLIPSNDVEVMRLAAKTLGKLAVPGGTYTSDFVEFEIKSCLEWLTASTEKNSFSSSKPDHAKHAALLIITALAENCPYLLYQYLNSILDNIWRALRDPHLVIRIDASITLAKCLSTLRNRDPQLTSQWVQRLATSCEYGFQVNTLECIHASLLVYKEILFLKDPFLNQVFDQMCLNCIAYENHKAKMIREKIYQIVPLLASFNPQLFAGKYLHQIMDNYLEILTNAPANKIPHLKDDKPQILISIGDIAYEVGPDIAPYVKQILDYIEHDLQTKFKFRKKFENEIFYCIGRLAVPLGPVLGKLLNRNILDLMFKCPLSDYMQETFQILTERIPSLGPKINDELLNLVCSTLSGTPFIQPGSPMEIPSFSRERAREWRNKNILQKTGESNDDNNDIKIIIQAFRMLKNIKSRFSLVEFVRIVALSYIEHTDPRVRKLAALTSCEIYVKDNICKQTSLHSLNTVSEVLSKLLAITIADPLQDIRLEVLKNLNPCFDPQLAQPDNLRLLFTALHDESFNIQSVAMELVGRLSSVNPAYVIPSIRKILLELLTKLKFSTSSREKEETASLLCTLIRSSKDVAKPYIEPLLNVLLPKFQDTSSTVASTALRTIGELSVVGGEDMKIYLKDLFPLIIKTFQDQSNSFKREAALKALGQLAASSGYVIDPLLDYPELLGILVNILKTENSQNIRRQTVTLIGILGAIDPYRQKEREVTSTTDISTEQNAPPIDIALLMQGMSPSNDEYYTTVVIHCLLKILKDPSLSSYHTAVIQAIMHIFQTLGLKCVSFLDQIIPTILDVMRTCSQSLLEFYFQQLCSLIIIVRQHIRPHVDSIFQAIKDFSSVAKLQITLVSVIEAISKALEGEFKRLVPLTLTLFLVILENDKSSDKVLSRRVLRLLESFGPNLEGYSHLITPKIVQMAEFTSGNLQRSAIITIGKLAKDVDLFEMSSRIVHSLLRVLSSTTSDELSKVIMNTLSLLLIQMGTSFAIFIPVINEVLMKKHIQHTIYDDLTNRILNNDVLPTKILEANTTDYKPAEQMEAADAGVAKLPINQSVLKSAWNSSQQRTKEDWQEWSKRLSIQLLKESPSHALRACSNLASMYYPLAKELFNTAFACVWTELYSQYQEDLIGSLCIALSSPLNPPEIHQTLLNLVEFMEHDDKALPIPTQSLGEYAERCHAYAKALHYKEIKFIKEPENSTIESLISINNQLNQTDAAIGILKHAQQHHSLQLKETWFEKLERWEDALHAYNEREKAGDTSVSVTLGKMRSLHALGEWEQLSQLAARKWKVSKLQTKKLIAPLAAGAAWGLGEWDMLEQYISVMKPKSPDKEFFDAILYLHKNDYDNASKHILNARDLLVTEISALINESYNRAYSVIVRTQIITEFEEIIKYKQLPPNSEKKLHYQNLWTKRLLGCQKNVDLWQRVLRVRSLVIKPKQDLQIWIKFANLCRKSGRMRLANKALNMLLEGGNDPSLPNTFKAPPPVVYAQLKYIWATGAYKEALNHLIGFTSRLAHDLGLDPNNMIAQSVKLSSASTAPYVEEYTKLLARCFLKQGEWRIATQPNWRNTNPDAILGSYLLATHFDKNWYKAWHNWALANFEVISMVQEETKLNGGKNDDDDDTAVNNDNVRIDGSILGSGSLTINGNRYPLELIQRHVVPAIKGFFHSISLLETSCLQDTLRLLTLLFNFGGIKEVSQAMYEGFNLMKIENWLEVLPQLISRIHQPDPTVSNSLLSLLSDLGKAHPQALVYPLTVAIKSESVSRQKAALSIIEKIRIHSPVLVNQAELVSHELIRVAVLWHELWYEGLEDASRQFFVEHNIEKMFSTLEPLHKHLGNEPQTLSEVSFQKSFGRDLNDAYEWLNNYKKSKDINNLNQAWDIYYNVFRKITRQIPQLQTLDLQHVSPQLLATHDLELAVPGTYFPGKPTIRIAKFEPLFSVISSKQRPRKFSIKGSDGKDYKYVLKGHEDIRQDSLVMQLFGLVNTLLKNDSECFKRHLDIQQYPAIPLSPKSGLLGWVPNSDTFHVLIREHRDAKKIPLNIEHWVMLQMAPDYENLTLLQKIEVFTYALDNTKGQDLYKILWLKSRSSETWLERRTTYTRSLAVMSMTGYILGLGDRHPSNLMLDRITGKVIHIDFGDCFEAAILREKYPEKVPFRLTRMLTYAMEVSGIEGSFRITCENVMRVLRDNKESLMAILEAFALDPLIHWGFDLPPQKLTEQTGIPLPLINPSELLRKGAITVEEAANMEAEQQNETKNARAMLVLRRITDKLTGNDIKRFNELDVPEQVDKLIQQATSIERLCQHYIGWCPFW
T1 sequence (P38873 whole entry partner): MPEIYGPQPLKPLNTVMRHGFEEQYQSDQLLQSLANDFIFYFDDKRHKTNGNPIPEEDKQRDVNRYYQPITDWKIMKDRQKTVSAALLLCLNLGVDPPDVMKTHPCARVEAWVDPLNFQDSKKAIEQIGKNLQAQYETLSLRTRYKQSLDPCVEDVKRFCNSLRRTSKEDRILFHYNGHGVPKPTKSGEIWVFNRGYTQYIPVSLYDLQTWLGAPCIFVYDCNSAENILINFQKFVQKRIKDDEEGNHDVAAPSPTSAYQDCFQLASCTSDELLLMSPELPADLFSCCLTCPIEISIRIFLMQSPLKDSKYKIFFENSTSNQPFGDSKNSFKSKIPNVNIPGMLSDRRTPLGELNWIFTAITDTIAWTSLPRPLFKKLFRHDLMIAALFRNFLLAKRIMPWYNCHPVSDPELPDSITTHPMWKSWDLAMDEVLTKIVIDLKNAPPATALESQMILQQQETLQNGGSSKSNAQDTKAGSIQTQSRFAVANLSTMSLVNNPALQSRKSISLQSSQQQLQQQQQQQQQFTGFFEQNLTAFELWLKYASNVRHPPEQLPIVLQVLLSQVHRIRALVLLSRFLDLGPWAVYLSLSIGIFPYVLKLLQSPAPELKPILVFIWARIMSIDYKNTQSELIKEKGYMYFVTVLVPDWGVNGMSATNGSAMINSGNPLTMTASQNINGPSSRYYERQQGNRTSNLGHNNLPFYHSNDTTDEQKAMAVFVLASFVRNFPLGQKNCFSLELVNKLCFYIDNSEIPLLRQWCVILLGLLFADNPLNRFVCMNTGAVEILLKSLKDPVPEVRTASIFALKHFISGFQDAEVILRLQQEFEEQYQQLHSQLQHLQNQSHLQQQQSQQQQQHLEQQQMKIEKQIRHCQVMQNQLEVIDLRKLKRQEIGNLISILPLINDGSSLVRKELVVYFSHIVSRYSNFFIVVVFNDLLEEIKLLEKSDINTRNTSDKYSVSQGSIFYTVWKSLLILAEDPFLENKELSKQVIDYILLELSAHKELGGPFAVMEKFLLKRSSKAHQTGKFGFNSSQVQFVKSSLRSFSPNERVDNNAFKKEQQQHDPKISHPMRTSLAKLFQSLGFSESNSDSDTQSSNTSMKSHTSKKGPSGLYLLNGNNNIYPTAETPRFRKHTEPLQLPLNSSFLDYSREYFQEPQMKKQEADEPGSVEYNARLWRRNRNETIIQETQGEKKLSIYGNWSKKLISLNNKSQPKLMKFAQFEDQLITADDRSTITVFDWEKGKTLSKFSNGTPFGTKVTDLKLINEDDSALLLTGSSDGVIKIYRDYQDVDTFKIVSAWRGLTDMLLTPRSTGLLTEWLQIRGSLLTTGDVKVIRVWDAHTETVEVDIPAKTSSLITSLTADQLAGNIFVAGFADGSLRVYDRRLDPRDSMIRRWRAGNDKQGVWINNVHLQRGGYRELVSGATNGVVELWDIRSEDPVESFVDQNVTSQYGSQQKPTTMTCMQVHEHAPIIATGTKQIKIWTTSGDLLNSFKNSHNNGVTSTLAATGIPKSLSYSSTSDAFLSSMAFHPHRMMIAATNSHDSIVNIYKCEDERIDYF
T1 sequence (P41318 whole entry partner): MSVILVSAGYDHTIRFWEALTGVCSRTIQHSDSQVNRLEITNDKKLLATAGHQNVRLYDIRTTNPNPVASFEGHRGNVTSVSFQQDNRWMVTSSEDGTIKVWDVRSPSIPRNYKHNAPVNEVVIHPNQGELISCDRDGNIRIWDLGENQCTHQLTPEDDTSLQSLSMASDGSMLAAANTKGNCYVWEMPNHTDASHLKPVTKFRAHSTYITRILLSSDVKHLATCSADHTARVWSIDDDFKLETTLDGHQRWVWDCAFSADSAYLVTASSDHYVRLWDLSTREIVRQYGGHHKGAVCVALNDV

| Compound | Ki [1] [nM] | Km [2] [µM] |
| --- | --- | --- |
| O=C(O)Cc1c[nH]c2ccccc12 [IAA, Indole-3-acetic acid] | 2400 |  |
| TORC1 (Tor1 kinase subunit) (Saccharomyces cerevisiae S288C) |  | 50.5 |
